According to patent publication US6890305B2, “Reagent and method for measuring lung function” (Cambridge Isotope Laboratories, priority 2002, dated 2005):

Assay: 13C-sodium bicarbonate breath test in one asthma patient, pre vs post inhaler medication
Format: in vivo, human
Details: breath test 45 minutes post medication vs pre-medication, advair and albuterol taken together, FIG. 4
Description: FIG. 3 exemplifies two such breath curves.
In this embodiment, the slope of the Δ ^13CO2 curve at time points t1 and t2 is calculated according to the following equation: slope={(Δ ^13CO2)2−(Δ ^13CO2)1}/(t2−t1)
As an example, the slope of the curve of FIG. 4 can be measured at the 10 minute time point and the 20 minute time point, to give a variable for determining lung function. […] It can be seen from FIG. 4 that the individual post-medication curve has a steeper slope for the 10 and 20 minute time point interval than prior to the medication, indicating an improved lung function. These specific time values are exemplary only and other time periods or half life of the disappearance curve can be used.
This example describes the monitoring of the reduction in airway resistance in one asthma patient following inhaler medication therapy—advair (fluticasone propionate 100 mcg and salmeterol 50 mcg inhalation powder) and albuterol (racemic (α^1-[(tert-butylamino)methyl]-4-hydroxy-m-xylene-α,α′-diol, commercially available as Ventolin®, Proventil®) a relatively selective beta2-adrenergic bronchodilator.
A breath test was performed at 7 am before the patient ingested any asthma medication. The medication was taken at 8:15 am.

In the case of `CC(C)(C)NCC(O)c1ccc(O)c(CO)c1` (racemic) [albuterol], the “AUC of expired Δ13CO2 breath curve (cumulative ‰×h), post vs pre medication” value is reported as “improvement” and the “slope of Δ13CO2 breath curve between 10-20 minutes, post vs pre medication” value is reported as “possibly the slope (steepening)”.
